Publication PMC9749936, “Synthesis and structure–activity relationship studies of N-terminal analogues of the lipopeptide antibiotics brevicidine and laterocidine” (RSC Medicinal Chemistry, 2022)
Read-outs that look alike come from different tables or passages of the source. Bridge positions count the residues as written; N and C are the ends. Square brackets hold non-standard residues; d marks the D form. Peptide text beside a SMILES is read from it. * marks the point of attachment. Octanoyl(7-Me) = CC(C)CCCCCC(=O)*; Lauroyl = CCCCCCCCCCCC(=O)*; Decanoyl = CCCCCCCCCC(=O)*; dOrn = NCCC[C@@H](N)C(=O)O; X1 = CC[C@H](C)CCCCC(=O)*; Orn = NCCC[C@H](N)C(=O)O; Dab = NCC[C@H](N)C(=O)O; Hexanoyl = CCCCCC(=O)*; Butyryl = CCCC(=O)*

Legend:
E. coli ATCC 25922 = format: cell-based, Escherichia coli
Summary of the method: (§1)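 Broth microdilution MIC per CLSI guidelines in MHB, with compound from DMSO stocks serially diluted in polypropylene plates.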

E. coli ATCC 25922 MCR-1 = format: cell-based, Escherichia coli
K. pneumoniae ATCC 13883 = format: cell-based, Klebsiella pneumoniae
Summary of the method: as §1

A. baumannii ATCC 17961 = format: cell-based, Acinetobacter baumannii
Summary of the method: as §1

P. aeruginosa PAO1 = format: cell-based, Pseudomonas aeruginosa
Summary of the method: as §1

S. aureus USA300 = format: cell-based, Staphylococcus aureus
Summary of the method: as §1

Sheep red blood cells = format: cell-based
[1] = colistin-resistant strain carrying mcr-1, CLSI broth microdilution in MHB, 18 h at 37 °C, visual inspection, three technical replicates
[2] = red cells of sheep, 1 h, 64 μg mL^−1
[3] = CLSI broth microdilution in MHB, 18 h at 37 °C, visual inspection, three technical replicates

Row | Structure (SMILES) | Antimicrobial activity (MIC) E. coli ATCC 25922 (E. coli ATCC 25922; ATCC 25922, 18 h) | Antimicrobial activity (MIC) E. coli ATCC 25922 MCR-1 (E. coli ATCC 25922 MCR-1; [1]) | Antimicrobial activity (MIC) K. pneumoniae ATCC 13883 (K. pneumoniae ATCC 13883; ATCC 13883, 18 h) | Antimicrobial activity (MIC) A. baumannii ATCC 17961 (A. baumannii ATCC 17961; ATCC 17961, 18 h) | Antimicrobial activity (MIC) P. aeruginosa PAO1 (P. aeruginosa PAO1; PAO1, 18 h) | Antimicrobial activity (MIC) S. aureus USA300 (S. aureus USA300; USA300, 18 h) | % Hemolytic activity, sheep red blood cells (Sheep red blood cells; [2]) | Antimicrobial activity (MIC) E. coli ATCC 25922 (E. coli ATCC 25922; CLSI broth microdilution in MHB, polypropylene 96-well plates, 18 h at 37 °C, visual inspection, three technical replicates) | Antimicrobial activity (MIC) E. coli ATCC 25922 MCR-1 (E. coli ATCC 25922 MCR-1; ATCC 25922, 18 h) | Antimicrobial activity (MIC) K. pneumoniae ATCC 13883 (K. pneumoniae ATCC 13883; [3]) | Antimicrobial activity (MIC) A. baumannii ATCC 17961 (A. baumannii ATCC 17961; [3]) | Antimicrobial activity (MIC) P. aeruginosa PAO1 (P. aeruginosa PAO1; [3]) | Antimicrobial activity (MIC) S. aureus USA300 (S. aureus USA300; [3]) | % Hemolytic activity, sheep red blood cells (Sheep red blood cells; peptide at 64 μg mL^−1, 1 h at 37 °C in PBS with 0.002% Tween20, read-out at 415 nm, relative to 0.1% Triton X-100 taken as 100%, triplicate)
1 | CCCCCCCCCC(=O)N[C@H](CO)C(=O)N[C@H](Cc1ccc(O)cc1)C(=O)N[C@H](Cc1c[nH]c2ccccc12)C(=O)N[C@H](CCCN)C(=O)N[C@@H](CCCN)C(=O)NCC(=O)N[C@H](CCCN)C(=O)N[C@@H](Cc1c[nH]c2ccccc12)C(=O)N[C@@H]1C(=O)N[C@@H]([C@@H](C)CC)C(=O)N[C@@H](CC(N)=O)C(=O)NCC(=O)NCC(=O)O[C@@H]1C [Compound 23] (Decanoyl-[dS][dY][dW][dOrn][Orn]G[dOrn]WTINGG; ester 9-C) | 2 µg/mL | 2 µg/mL | 2 to 4 µg/mL | 2 µg/mL | 2 µg/mL | >32 µg/mL | 2.1% |  |  |  |  |  |  | 
2 | CCCC(=O)N[C@H](CC(N)=O)C(=O)N[C@H](Cc1ccc(O)cc1)C(=O)N[C@H](Cc1c[nH]c2ccccc12)C(=O)N[C@H](CCCN)C(=O)N[C@@H](CCCN)C(=O)NCC(=O)N[C@H](CCCN)C(=O)N[C@@H](Cc1c[nH]c2ccccc12)C(=O)N[C@@H]1C(=O)N[C@@H]([C@@H](C)CC)C(=O)NCC(=O)N[C@@H](CO)C(=O)O[C@@H]1C [Compound 11] (Butyryl-[dN][dY][dW][dOrn][Orn]G[dOrn]WTIGS; ester 9-C) | 32 µg/mL | 32 µg/mL | 8 µg/mL | 32 µg/mL | 16 µg/mL | >32 µg/mL | 0.1% |  |  |  |  |  |  | 
3 | CC[C@H](C)[C@@H]1NC(=O)[C@@H](NC(=O)[C@H](Cc2c[nH]c3ccccc23)NC(=O)[C@@H](CCCN)NC(=O)CNC(=O)[C@H](CCCN)NC(=O)[C@@H](CCCN)NC(=O)[C@@H](Cc2c[nH]c3ccccc23)NC(=O)[C@@H](Cc2ccc(O)cc2)NC(=O)[C@@H](CO)NC(=O)CCCCCC(C)C)[C@@H](C)OC(=O)CNC(=O)CNC(=O)[C@H](CC(N)=O)NC1=O [Compound 2, laterocidine] ({Octanoyl(7-Me)}-[dS][dY][dW][dOrn][Orn]G[dOrn]WTINGG; ester 9-C; N-terminus assumed) | 2 µg/mL | 2 µg/mL | 2 to 4 µg/mL | 2 µg/mL | 4 µg/mL | >32 µg/mL | 0.4% |  |  |  |  |  |  | 
4 | CCCCCC(=O)N[C@H](CO)C(=O)N[C@H](Cc1ccc(O)cc1)C(=O)N[C@H](Cc1c[nH]c2ccccc12)C(=O)N[C@H](CCCN)C(=O)N[C@@H](CCCN)C(=O)NCC(=O)N[C@H](CCCN)C(=O)N[C@@H](Cc1c[nH]c2ccccc12)C(=O)N[C@@H]1C(=O)N[C@@H]([C@@H](C)CC)C(=O)N[C@@H](CC(N)=O)C(=O)NCC(=O)NCC(=O)O[C@@H]1C [Compound 21] (Hexanoyl-[dS][dY][dW][dOrn][Orn]G[dOrn]WTINGG; ester 9-C) | 4 µg/mL | 8 µg/mL | 8 µg/mL | 16 µg/mL | 4 µg/mL | >32 µg/mL | 0.2% |  |  |  |  |  |  | 
5 | CC[C@H](C)[C@@H]1NC(=O)[C@@H](NC(=O)[C@H](Cc2c[nH]c3ccccc23)NC(=O)[C@@H](CCCN)NC(=O)CNC(=O)[C@H](CCCN)NC(=O)[C@@H](CCCN)NC(=O)[C@@H](Cc2c[nH]c3ccccc23)NC(=O)[C@@H](Cc2ccc(O)cc2)NC(=O)[C@@H](CC(N)=O)NC(C)=O)[C@@H](C)OC(=O)[C@H](CO)NC(=O)CNC1=O [Compound 10] (Ac-[dN][dY][dW][dOrn][Orn]G[dOrn]WTIGS; ester 9-C) | >32 µg/mL | >32 µg/mL | >32 µg/mL | >32 µg/mL | 8 µg/mL | >32 µg/mL | 0.2% |  |  |  |  |  |  | 
6 | CCCCCCCCCCCC(=O)N[C@H](CC(N)=O)C(=O)N[C@H](Cc1ccc(O)cc1)C(=O)N[C@H](Cc1c[nH]c2ccccc12)C(=O)N[C@H](CCCN)C(=O)N[C@@H](CCCN)C(=O)NCC(=O)N[C@H](CCCN)C(=O)N[C@@H](Cc1c[nH]c2ccccc12)C(=O)N[C@@H]1C(=O)N[C@@H]([C@@H](C)CC)C(=O)NCC(=O)N[C@@H](CO)C(=O)O[C@@H]1C [Compound 15] (Lauroyl-[dN][dY][dW][dOrn][Orn]G[dOrn]WTIGS; ester 9-C) | 8 µg/mL | 8 µg/mL | 8 µg/mL | 4 µg/mL | 16 µg/mL | 32 µg/mL | 13.3% |  |  |  |  |  |  | 
7 | CC[C@H](C)CCCCC(=O)N[C@@H](CCN)C(=O)N[C@H](C(=O)N[C@@H](CCN)C(=O)N[C@H]1CCNC(=O)[C@H]([C@@H](C)O)NC(=O)[C@H](CCN)NC(=O)[C@H](CCN)NC(=O)[C@H](CC(C)C)NC(=O)[C@@H](CC(C)C)NC(=O)[C@H](CCN)NC1=O)[C@@H](C)O [Colistin, colistin, reference compound] (X1-[Dab]T[Dab][Dab][Dab][dL]L[Dab][Dab]T; lactam 4-C (inferred); N-terminus assumed) |  |  |  |  |  |  |  | 0.5 µg/mL | 8 µg/mL | 0.5 µg/mL | ≤0.25 µg/mL | 4 µg/mL | >32 µg/mL | <0.1%
8 | CC[C@H](C)[C@@H]1NC(=O)[C@@H](NC(=O)[C@H](Cc2c[nH]c3ccccc23)NC(=O)[C@@H](CCCN)NC(=O)CNC(=O)[C@H](CCCN)NC(=O)[C@@H](CCCN)NC(=O)[C@@H](Cc2c[nH]c3ccccc23)NC(=O)[C@@H](Cc2ccc(O)cc2)NC(=O)[C@@H](CO)NC(C)=O)[C@@H](C)OC(=O)CNC(=O)CNC(=O)[C@H](CC(N)=O)NC1=O [Compound 19] (Ac-[dS][dY][dW][dOrn][Orn]G[dOrn]WTINGG; ester 9-C) | >32 µg/mL | >32 µg/mL | >32 µg/mL | >32 µg/mL | 16 µg/mL | >32 µg/mL | 0.2% |  |  |  |  |  |  | 
9 | CCCCCC(=O)N[C@H](CC(N)=O)C(=O)N[C@H](Cc1ccc(O)cc1)C(=O)N[C@H](Cc1c[nH]c2ccccc12)C(=O)N[C@H](CCCN)C(=O)N[C@@H](CCCN)C(=O)NCC(=O)N[C@H](CCCN)C(=O)N[C@@H](Cc1c[nH]c2ccccc12)C(=O)N[C@@H]1C(=O)N[C@@H]([C@@H](C)CC)C(=O)NCC(=O)N[C@@H](CO)C(=O)O[C@@H]1C [Compound 12] (Hexanoyl-[dN][dY][dW][dOrn][Orn]G[dOrn]WTIGS; ester 9-C) | 8 µg/mL | 8 µg/mL | 4 µg/mL | 16 µg/mL | >32 µg/mL | >32 µg/mL | 0.3% |  |  |  |  |  |  | 
